Some test systems named below: BT-549 breast; K-562 leukemia; NCI-H522 lung; MOLT-4 leukemia; 786-0 renal; KM12 colon; OVCAR-3 ovarian; A498 renal; TK-10 renal; HOP-92 NSCLC.
Common to all, as to assay: NCI tumour cell line growth inhibition, 48 h

GI50 and TGI data for 8 molecules are collected here from PubChem BioAssay (NCI).

The structures appear in SMILES notation. Values joined by “and” are separate entries in the source; they are usually repeats but may differ in a detail not shown here. Identical values can stand only once.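 Interpolation was linear, between the two tested concentrations surrounding the appropriate level; five concentrations were tested over 48 hours in 96-well plates. The concentration for 50% growth inhibition is given as GI50. The concentration for full growth arrest is given as TGI.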 Where only a bound is given, the exact number is not on record here.

For `CC(C)c1[nH]nc2c(NCc3ccc(-c4ccccn4)cc3)nc(SCCN(C)C)nc12`, the GI50 is 0.0194 µM with BT-549 breast; below 0.021 µM with K-562 leukemia; below 0.015 µM in the experiment with NCI-H522 lung; below 0.0178 µM in the experiment with MOLT-4 leukemia; 0.0767 µM in the experiment on 786-0 renal; below 0.0159 µM in the experiment on KM12 colon. Besides, the GI50 was 0.0754 µM with OVCAR-3 ovarian, 0.0563 µM in the experiment on A498 renal, 0.0456 µM with TK-10 renal and 0.0585 µM in the experiment on HOP-92 NSCLC. Besides, the TGI in the experiment with BT-549 breast is 0.217 µM; in the experiment on K-562 leukemia, 10.3 µM; in the experiment on NCI-H522 lung, below 0.0232 µM; with MOLT-4 leukemia it was 0.202 µM; with 786-0 renal it was 6.06 µM; with KM12 colon, 6.07 µM. The TGI in the experiment with OVCAR-3 ovarian turned out to be 10.9 µM; in the experiment with A498 renal it was 0.164 µM; in the experiment on TK-10 renal it was 11.9 µM; with HOP-92 NSCLC, 0.468 µM.

On to `CN(C)CC1C(=O)O[C@H]2[C@H]1CC/C(COC(=O)NCc1ccc(Cn3c(=O)sn(CCCI)c3=O)cc1)=C\CC[C@@]1(C)O[C@@H]21` (some centres undefined), for which the GI50 in the experiment with BT-549 breast was 1.84 µM; in the experiment on K-562 leukemia, 1.02 µM; in the experiment with NCI-H522 lung, 0.742 µM; with MOLT-4 leukemia, 0.947 µM; in the experiment with 786-0 renal, 1.1 µM; with KM12 colon, 7.71 µM. Further, the GI50 in the experiment with OVCAR-3 ovarian was 0.775 µM; in the experiment on A498 renal, 7.02 µM; with TK-10 renal, 0.862 µM; with HOP-92 NSCLC, 0.786 µM. Besides, the TGI is 7.93 µM in the experiment on BT-549 breast; 6.01 µM in the experiment on K-562 leukemia; 1.68 µM in the experiment on NCI-H522 lung; 3.43 µM in the experiment with MOLT-4 leukemia; 2.43 µM in the experiment with 786-0 renal; 15.7 µM in the experiment with KM12 colon. Also, the TGI in the experiment on OVCAR-3 ovarian is 1.45 µM; in the experiment on A498 renal it was 13.6 µM; with TK-10 renal, 1.64 µM; in the experiment with HOP-92 NSCLC, 2.56 µM.

For the molecule `OC(CN1CCCC2CCCCC21)c1cc2ccccc2c2ccccc12` (centres undefined), the GI50 in the experiment with BT-549 breast was 1.54 µM; in the experiment on K-562 leukemia it was 1.68 µM; in the experiment with NCI-H522 lung, 1.45 µM; with MOLT-4 leukemia, 1.81 µM; with 786-0 renal, 1.84 µM; in the experiment on KM12 colon, 1.87 µM. Besides, the GI50 in the experiment on OVCAR-3 ovarian was 2.82 µM; in the experiment on A498 renal, 2.21 µM; in the experiment with TK-10 renal, 2.3 µM; in the experiment on HOP-92 NSCLC, 1.24 µM. The TGI turned out to be 4.06 µM with BT-549 breast; 3.39 µM with K-562 leukemia; 3.06 µM in the experiment with NCI-H522 lung; 4.79 µM in the experiment on MOLT-4 leukemia; 3.6 µM in the experiment with 786-0 renal; 4.04 µM in the experiment on KM12 colon. Besides, the TGI with OVCAR-3 ovarian came out at 8.54 µM; in the experiment on A498 renal, 5.8 µM; with TK-10 renal, 7.66 µM; with HOP-92 NSCLC, 3.42 µM.

On to `Cc1cc2c3c([n+](C)c4ccc(F)cc4c3c1)-c1cc(F)ccc1N2C`, for which the GI50 with BT-549 breast is 4.63 µM; in the experiment with K-562 leukemia, 4.74 µM; with NCI-H522 lung, 6.86 µM; with MOLT-4 leukemia, 3.28 µM; with 786-0 renal, 6.24 µM; with KM12 colon it was 4.81 µM. Also, the GI50 with OVCAR-3 ovarian is 12 µM; with A498 renal it was above 100 µM; with TK-10 renal, 51.8 µM; with HOP-92 NSCLC, 16.4 µM. Moreover, the TGI in the experiment on BT-549 breast is 33.9 µM; with K-562 leukemia, above 100 µM; with NCI-H522 lung it was 29.4 µM; in the experiment with MOLT-4 leukemia, above 100 µM; with 786-0 renal, above 100 µM; with KM12 colon, 44.1 µM. Further, the TGI with OVCAR-3 ovarian was 61.8 µM; with A498 renal, above 100 µM; in the experiment on TK-10 renal, above 100 µM; with HOP-92 NSCLC it was 46 µM.

Regarding `COc1cc2c3c(n(CCN4CCOCC4)c(=O)c2cc1OC)-c1ccccc1C3=O`, the GI50 is above 100 µM in the experiment on BT-549 breast; 99.3 µM in the experiment with K-562 leukemia; 21.2 µM in the experiment with NCI-H522 lung; 55.5 µM in the experiment with MOLT-4 leukemia; 88.9 µM with 786-0 renal; above 100 µM with KM12 colon. For the same molecule, the GI50 was above 100 µM with OVCAR-3 ovarian, 85.7 µM in the experiment on A498 renal, above 100 µM with TK-10 renal and above 100 µM with HOP-92 NSCLC. For the same molecule, the TGI in the experiment on BT-549 breast, in the experiment on K-562 leukemia, with NCI-H522 lung, with MOLT-4 leukemia, in the experiment with 786-0 renal and in the experiment on KM12 colon was above 100 µM each time. The TGI with OVCAR-3 ovarian, in the experiment with A498 renal, in the experiment on TK-10 renal and in the experiment on HOP-92 NSCLC was above 100 µM throughout.

On to `COc1cc(C2c3cc4c(cc3[C@@H](Nc3ccc([N+](=O)[O-])cc3)C3COC(=O)[C@H]23)OCO4)cc(OC)c1O` (some centres undefined), for which the TGI was 6.39 µM in the experiment on BT-549 breast; 39.4 µM in the experiment with K-562 leukemia; 5.42 µM with NCI-H522 lung; 0.544 µM and 0.442 µM in the experiment with MOLT-4 leukemia; 3.35 µM with 786-0 renal; 6.42 µM in the experiment on KM12 colon. For the same molecule, the TGI with OVCAR-3 ovarian stood at 17.3 µM; in the experiment with A498 renal, 4.8 µM; with TK-10 renal, 6.97 µM. Also, the GI50 in the experiment on NCI-H522 lung is 0.733 µM; with MOLT-4 leukemia, 0.0342 µM; in the experiment on 786-0 renal it was 0.377 µM; with A498 renal, 0.536 µM; in the experiment on HOP-92 NSCLC, 0.393 µM.

`Cc1c(Cl)cccc1NC(=O)c1sc2nc3c(cc2c1N)C(=O)CCC3`: the GI50 in the experiment on BT-549 breast is 0.169 µM; with K-562 leukemia it was 0.0371 µM; in the experiment on NCI-H522 lung, 0.0204 µM; with MOLT-4 leukemia, 0.466 µM; in the experiment with 786-0 renal, 0.0917 µM; in the experiment on KM12 colon, 0.0658 µM. The GI50 in the experiment with OVCAR-3 ovarian was 0.048 µM; in the experiment on A498 renal it was 0.023 µM; in the experiment with TK-10 renal it was 37.6 µM; with HOP-92 NSCLC, 0.0479 µM. For the same molecule, the TGI with BT-549 breast was above 100 µM; in the experiment on K-562 leukemia, above 100 µM; in the experiment on NCI-H522 lung, 0.395 µM; in the experiment on MOLT-4 leukemia, above 100 µM; in the experiment with 786-0 renal, above 59.4 µM; in the experiment with KM12 colon it was above 100 µM. The TGI in the experiment with OVCAR-3 ovarian is 0.53 µM; in the experiment on A498 renal, 0.203 µM; in the experiment on TK-10 renal, above 100 µM; in the experiment with HOP-92 NSCLC, 24.1 µM.

Regarding `Cc1ccc(N=Nc2c(O)ccc3n[nH]nc23)cc1`, the GI50 is 21.2 µM in the experiment on BT-549 breast; 9.06 µM with K-562 leukemia; 10.1 µM with NCI-H522 lung; 2.89 µM with MOLT-4 leukemia; 20.3 µM in the experiment on 786-0 renal; 10.8 µM in the experiment on KM12 colon. For the same molecule, the GI50 in the experiment on OVCAR-3 ovarian was 4.31 µM; with A498 renal it was 1.99 µM; in the experiment on TK-10 renal it was 11.7 µM; in the experiment on HOP-92 NSCLC, 15.4 µM. For the same molecule, the TGI was above 100 µM with BT-549 breast; above 100 µM in the experiment with K-562 leukemia; 45.5 µM in the experiment with NCI-H522 lung; 12.8 µM with MOLT-4 leukemia; above 100 µM in the experiment on 786-0 renal; 37.9 µM with KM12 colon. Besides, the TGI in the experiment with OVCAR-3 ovarian came to 22.2 µM; in the experiment on A498 renal it was 42.2 µM; in the experiment with TK-10 renal, 73.5 µM; with HOP-92 NSCLC it was 83.8 µM.
